The structures appear in SMILES notation.

These results are taken from US7235548B2, “Compounds and their use as positive AMPA receptor modulators” (NeuroSearch A/S, priority 1998, dated 2007).

The test system of the assay is AMPA receptors. Put plainly: AMPA evoked single neuron spike activity in rat hippocampus (iontophoretic application of AMPA), in vivo. The note with it: for AMPA evoked spike activity: rat hippocampus. The text has this: Evaluation of the in vivo effects of positive AMPA modulators (PAMs) on the AMPA evoked spike activity in rat hippocampus. Hippocampal single neuron spike activity is strongly influenced by excitatory input, and iontophoretic application of AMPA induces spike activity in vivo in a dose-dependent manner ([…] et al. 1998). […] PAMs potentate AMPA receptor activation in vitro, and if this mechanism also operates in vivo, the i.v. injection of an PAM should enhance AMPA evoked spike activity. Thus, the aim of this study was to test the in vivo effect of a group of in vitro active PAMs. This have been done by studying their ability to enhances AMPA evoked spike activity after i.v. administration. Experiments were performed on male Wistar rats (M & B, Denmark) weighing 280-380 g, housed in two per cage with free access to food and water. […] Additional anaesthetic was given i.v. if the rat responded to a pinch of the back foot. The trachea was cannulated and the rats were placed in a stereotaxic frame and ventilated by a rodent ventilator (Ugo Basile, Comerio-Varese, Italy). Core body temperature was maintained at 37.5° C. by a DC heating pad. The left and dorsal part of the parietal bone was removed by craniotomy and the dura was withdrawn exposing the pia mater and underlying brain, covered with 0.9% NaCl. AMPA (Sigma, USA) was dissolved at 10 mM in 0.2 M NaCl. NMDA (Sigma, USA) was dissolved at 100 mM in 100 mM NaCl. Both solutions were adjusted to pH 7.5-8.0 with NaOH. COMPOUND 61 was dissolved in 200 mM CH3SO3^- Na^+ at a contration of 10 mM for iontophoretic application ([…]) and in isotonic glucose (278 mM) for i.v. administration. Cyclothiazide, COMPOUND 63, COMPOUND 56, COMPOUND 115 and COMPOUND 114 were all dissolved at in 5% chremophore solution at a concentration of 5 mg ml^-1. Evoked neuronal spike activity was analyzed on-line by a computer, saving single spikes and time of event. Neuronal spike activity (number of action potentials s^-1) was monitored on a pulse rate histogram together with indicators for AMPA, COMPOUND 61 and vehicle application. Extracellular recordings of single hippocampal neuron spikes were made with five-barrel glass microelectrodes (5B120F-6, World Precision Instruments Inc., Sarasota, Fla., USA) with a tip diameter of 10-12 μm. The individual barrels were filled with 5 M NaCl (recording), 400 mM NaCl (current balancing), 10 mM COMPOUND 61 in 200 mM CH3SO3^- Na^+ (pH 4.7), 200 mM CH3SO3^- Na^+ (pH 4.7, Vehicle), and the last barrel was filled with the AMPA. Experiments were performed on hippocampal neurons (A=5.5-6.5 mm, L=1.5-2.0 mm, H=2.0-3.0 mm, according to Paxinos & Watson, 1986). Neuronal spike activity was evoked by iontophoretic application of AMPA for periods of 10 to 15 s with 1.5 min intervals. Single neuron spike activity was amplified 5000 times with a bandwidth of 0.3 and 3 kHz (CyberAmp 320 with a Al 402 x50 smartprobe, Axon Instruments, California, USA). On-line and off-line analyses were performed by the Spike2 program with a 1401 plus interface (Cambridge Electronic Design Limited, England). The computer program also recorded mean arterial blood pressure and monitored and controlled iontophoretic application. AMPA was ejected into hippocampus in regular cycles of 100-105 s. […] Recording of neuronal spike activity was continued for at least 45 min after intravenous injection. The PAM reactivity was tested by microiontophoretic application of COMPOUND 61 (20 nA, FIG.).

As for `Cc1cc2c(cc1S(=O)(=O)N1CCCCC1)S(=O)(=O)NC(C1CCCC1)N2` (centres unmarked) [Compound 114, 3-Cyclopentyl-6-methyl-7-piperidinosulfonyl-1,2,3,4-tetrahydro-1,2,4-benzothia-diazine-1,1-dioxide], the “AMPA evoked spike activity” value (10 mg kg^−1 i.v.) is “enhanced”. For the same molecule, the “increase of the AMPA responses” value (10 mg kg^−1 i.v., control level of the AMPA responses low, FIG. 15) is on record as 10 fold. Also, the “AMPA response after administration” value (10 mg kg^−1 i.v., larger control responses, from 124, FIG. 16) came to 204 spikes response^−1. Further, the “enhancement of the AMPA responses” value (10 mg kg^−1 i.v., larger control responses, FIG. 16) is listed as “approximately doubled”. Where the note is “10 mg kg^−1 i.v., low control level, from 21, FIG. 15”, the “AMPA response after administration, mean response” value was 209 spikes response^−1.

For `Cc1cc2c(cc1S(=O)(=O)N1CCOCC1)S(=O)(=O)NC(C1CCCCC1)N2` (centres unmarked) [Compound 115, 3-Cyclohexyl-6-methyl-7-morpholinosulfonyl-1,2,3,4-tetrahydro-1,2,4-benzothiadiazine-1,1-dioxide], for the setting “10 mg kg^−1 i.v.”, the “onset of the enhancement after i.v. administration” value came to 2 min and the “AMPA evoked spike activity” value was “enhancement”.

On to `CN1CCN(S(=O)(=O)c2ccc3c(c2)S(=O)(=O)NC(C2CCCCC2)N3)CC1` (centres unmarked) [Compound 61, 3-Cyclohexyl-7-(4′-methylpiperazino)sulfonyl-1,2,3,4-tetrahydro-1,2,4-benzothiadiazine-1,1-dioxide], for which, where the note is “10 mg kg^−1 i.v.”, the “onset of the enhancement after i.v. administration” value is 20 min and the “AMPA evoked spike activity” value is given as “enhanced”. For the same molecule, where the note is “10 mg kg^−1 i.v., FIG. 14”, the “increase in AMPA evoked spike activity” value worked out at 3 fold. Further, where the note is “iontophoretic application of the compound (20 nA)”, the “AMPA evoked spike activity” value is “enhanced”.

As to `O=S1(=O)NC(C2CCCCC2)Nc2ccc(S(=O)(=O)N3CCOCC3)cc21` (centres unmarked) [Compound 63, 3-Cyclohexyl-7-morpholinosulfonyl-1,2,3,4-tetrahydro-1,2,4-benzothiadiazine-1,1-dioxide], the “initial effect on the AMPA responses” value (10 mg kg^−1 i.v., before onset of enhancement) is “initial inhibition”. In addition, the “large AMPA responses, evoked by high intensity AMPA stimulation” value (10 mg kg^−1 i.v., high intensity AMPA (17 nA)) is given as “only marginal effect”. For the setting “10 mg kg^−1 i.v., low intensity AMPA (12 nA)”, the “small AMPA responses, evoked by low intensity AMPA stimulation” value is on record as “enhanced”.
